From ChEMBL document CHEMBL1201862, “PubChem BioAssay data set” (2004)
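Assay format: 96-well plates, 48-hour exposure. GI50 marks 50% less growth.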 Active and inactive are the calls of the source. Cut-off read from the data, not from the text of the source: active = GI50 up to about 1.1 µM and inactive = higher.

What was measured:
Experiment in all cases: NCI anticancer screen, dose series, 48 h
A549 = test system: A549
CAKI-1 = test system: CAKI-1
CCRF-CEM = test system: CCRF-CEM
COLO 205 = test system: COLO 205
DMS-114 = test system: DMS-114
DMS-273 = test system: DMS-273
EKVX = test system: EKVX
HCT-15 = test system: HCT-15
HL-60 = test system: HL-60
HT-29 = test system: HT-29
IGROV-1 = test system: IGROV-1
K562 = test system: K562
KM12 = test system: KM12
LOX IMVI = test system: LOX IMVI
M14 = test system: M14
M19-MEL = test system: M19-MEL
MOLT-4 = test system: MOLT-4
NCI-H226 = test system: NCI-H226
NCI-H23 = test system: NCI-H23
NCI-H522 = test system: NCI-H522
OVCAR-3 = test system: OVCAR-3
OVCAR-8 = test system: OVCAR-8
RPMI-8226 = test system: RPMI-8226
RXF 393 = test system: RXF 393
SF-268 = test system: SF-268
SF-295 = test system: SF-295
SF-539 = test system: SF-539
SK-MEL-28 = test system: SK-MEL-28
SK-MEL-5 = test system: SK-MEL-5
SK-OV-3 = test system: SK-OV-3
SN12C = test system: SN12C
SNB-19 = test system: SNB-19
SNB-75 = test system: SNB-75
SW-620 = test system: SW-620
TK-10 = test system: TK-10
UACC-257 = test system: UACC-257
UACC-62 = test system: UACC-62
UO-31 = test system: UO-31
ACHN = test system: ACHN
HCC 2998 = test system: HCC 2998
HCT-116 = test system: HCT-116
HOP-18 = test system: HOP-18
HOP-62 = test system: HOP-62
HOP-92 = test system: HOP-92
KM-20L2 = test system: KM-20L2
LXFL 529 = test system: LXFL 529
NCI-H460 = test system: NCI-H460
OVCAR-4 = test system: OVCAR-4
OVCAR-5 = test system: OVCAR-5
SK-MEL-2 = test system: SK-MEL-2
SNB-78 = test system: SNB-78
SR = test system: SR
U-251 = test system: U-251
786-0 = test system: 786-0
A498 = test system: A498
Malme-3M = test system: Malme-3M
DLD-1 = test system: DLD-1

Measured: GI50

O=C1N[C@@H]2CCC[C@@H]2[C@@H]1c1ccc(Cl)cc1
> 100 µM: HCT-15
inactive: A549 > 100 µM | CAKI-1 > 100 µM | CCRF-CEM > 100 µM | COLO 205 > 100 µM | DMS-114 70 µM | DMS-273 > 100 µM | EKVX > 100 µM | HL-60 > 100 µM | HT-29 > 100 µM | IGROV-1 > 100 µM | K562 > 100 µM | KM12 > 100 µM | LOX IMVI > 100 µM | M14 > 100 µM | M19-MEL > 100 µM | MOLT-4 > 100 µM | NCI-H226 87.9 µM | NCI-H23 > 100 µM | NCI-H522 > 100 µM | OVCAR-3 > 100 µM | OVCAR-8 > 100 µM | RPMI-8226 > 100 µM | RXF 393 > 100 µM | SF-268 > 100 µM | SF-295 > 100 µM | SF-539 > 100 µM | SK-MEL-28 > 100 µM | SK-MEL-5 > 100 µM | SK-OV-3 > 100 µM | SN12C > 100 µM | SNB-19 > 100 µM | SNB-75 > 100 µM | SW-620 > 100 µM | TK-10 > 100 µM | UACC-257 > 100 µM | UACC-62 > 100 µM | UO-31 65.2 µM

O=C(NNC(=O)c1nsc2ccccc12)c1ccc(Cl)cc1
inactive: A549 21.7 µM | ACHN > 100 µM | CCRF-CEM 19 µM | COLO 205 23.7 µM | DMS-114 > 10 µM | DMS-273 8.11 µM | EKVX 18.2 µM | HCC 2998 16.9 µM | HCT-116 17.5 µM | HL-60 23.7 µM | HOP-18 10.2 µM | HOP-62 18.3 µM | HOP-92 17.1 µM | HT-29 20.3 µM | IGROV-1 34.5 µM | K562 19.1 µM | KM-20L2 19.8 µM | KM12 27.2 µM | LOX IMVI 18.1 µM | LXFL 529 19.7 µM | M14 19.5 µM | M19-MEL 20 µM | MOLT-4 20.4 µM | NCI-H23 21.9 µM | NCI-H460 > 100 µM | OVCAR-3 17.2 µM | OVCAR-4 > 10 µM | OVCAR-5 20.4 µM | OVCAR-8 29.2 µM | RPMI-8226 20.4 µM | RXF 393 14 µM | SF-268 17.7 µM | SF-539 17 µM | SK-MEL-28 16.9 µM | SK-MEL-2 22.3 µM | SK-MEL-5 23.8 µM | SN12C 17.6 µM | SNB-19 19.1 µM | SNB-75 2.93 µM | SNB-78 24.8 µM | SR 25.1 µM | SW-620 35.4 µM | TK-10 26.3 µM | U-251 16.7 µM | UACC-257 21.2 µM | UACC-62 > 10 µM | UO-31 18.9 µM
18.2 µM: HCT-15

COc1ccc2c(c1)CC[C@@H]1C2CC[C@]2(C)C(=O)N(N)C(=O)CC12 (some centres not stated)
inactive: 786-0 > 100 µM | A498 35.8 µM | ACHN > 100 µM | CCRF-CEM 80 µM | COLO 205 > 100 µM | DMS-114 44.5 µM | HCT-116 > 100 µM | HOP-62 > 100 µM | HOP-92 > 100 µM | HT-29 > 100 µM | IGROV-1 > 100 µM | K562 32.6 µM | KM-20L2 32.9 µM | KM12 > 100 µM | LXFL 529 52.6 µM | M14 78.3 µM | M19-MEL > 100 µM | MOLT-4 44.4 µM | Malme-3M > 100 µM | NCI-H23 > 100 µM | NCI-H460 37.2 µM | NCI-H522 48.8 µM | OVCAR-3 > 100 µM | OVCAR-4 > 100 µM | OVCAR-5 > 100 µM | RPMI-8226 28.8 µM | RXF 393 > 10 µM | SF-268 > 100 µM | SF-295 > 100 µM | SK-MEL-28 > 100 µM | SK-MEL-2 > 100 µM | SK-OV-3 > 100 µM | SNB-19 > 100 µM | SNB-75 > 100 µM | SNB-78 77.4 µM | SR 38 µM | U-251 > 100 µM | UACC-257 35.6 µM | UACC-62 80.9 µM | UO-31 72.9 µM

COC(=O)NC(=O)c1cn(C2CCCCC2)c(=O)[nH]c1=O
> 100 µM: HCT-15
inactive: 786-0 > 100 µM | A498 > 100 µM | A549 > 100 µM | ACHN > 100 µM | CAKI-1 > 100 µM | CCRF-CEM > 100 µM | COLO 205 > 100 µM | DLD-1 > 100 µM | DMS-114 > 100 µM | DMS-273 > 100 µM | HCC 2998 > 100 µM | HCT-116 > 100 µM | HL-60 > 100 µM | HOP-18 > 100 µM | HOP-62 > 100 µM | HOP-92 > 100 µM | HT-29 > 100 µM | IGROV-1 > 100 µM | K562 > 100 µM | KM-20L2 > 100 µM | KM12 > 100 µM | LOX IMVI > 100 µM | LXFL 529 > 100 µM | M14 > 100 µM | M19-MEL > 100 µM | MOLT-4 > 100 µM | Malme-3M > 100 µM | NCI-H226 > 100 µM | NCI-H23 > 100 µM | NCI-H460 > 100 µM | NCI-H522 > 100 µM | OVCAR-3 > 100 µM | OVCAR-4 > 100 µM | OVCAR-5 > 100 µM | OVCAR-8 > 100 µM | RPMI-8226 > 100 µM | RXF 393 > 100 µM | SF-268 > 100 µM | SF-295 > 100 µM | SF-539 > 100 µM | SK-MEL-28 > 100 µM | SK-MEL-2 > 100 µM | SK-MEL-5 > 100 µM | SK-OV-3 > 100 µM | SN12C > 100 µM | SNB-19 > 100 µM | SNB-75 > 100 µM | SNB-78 > 100 µM | SR > 100 µM | SW-620 > 100 µM | TK-10 > 100 µM | U-251 > 100 µM | UACC-257 > 100 µM | UACC-62 > 100 µM | UO-31 > 100 µM
